Experimental data: publication PMC11187190, “Structural insights into GABAA receptor potentiation by Quaalude” (Nature Communications, 2024)
Values joined by “and” are separate entries in the source; they are usually repeats but may differ in a detail not shown here. Identical values can stand only once. “Also recorded” adds a separate entry of the source. Like-named read-outs stand apart in the source and are kept apart here.

Legend:
[1] = system: α1M236Wβ2γ2 GABAA receptor; details: α1M236W, cited from earlier work
[2] = system: α1β2N265Mγ2 GABAA receptor; details: β2N265M, cited from earlier work
α1β2γ2 GABAA receptor [3] = details: cited from earlier work
[4] = system: α1β2M286Wγ2 GABAA receptor; details: β2M286W, cited from earlier work
[5] = system: α1β2M286Aγ2 GABAA receptor; details: β2M286A; cited from earlier work
[6] = system: α1M236Aβ2γ2 GABAA receptor; details: α1M236A; cited from earlier work
[7] = system: β2N265M mutant α1β2γ2 GABAA receptor; experiment: Whole-cell patch-clamp electrophysiology, TMD site mutant incl. diazepam competition; format: cell-based; details: for Effect on potentiation by diazepam (competition assay): diazepam 1 µM, methaqualone 100 µM
Procedure: (§1) Whole-cell voltage-clamp recordings were collected on the adherent HEK293S GnTI^− that were transiently transfected with the tri-cistronic pEZT construct used for structural analyses, as well as with GFP protein in pEZT for selection. The amount of plasmids used for transfection was 0.2–0.6 μg, and transfection was performed according to Lipofectamine2000 manufacturer’s protocol. The protein was expressed for 1–3 days at 30 °C. On the day of recording, cells were plated onto a 35 mm dish and washed with bath solution (140 mM NaCl, 2.4 mM KCl, 4 mM MgCl2, 4 mM CaCl2, 10 mM HEPES pH 7.3, and 10 mM glucose). Borosilicate pipettes were pulled and polished to an initial resistance of 2–4 MΩ. Pipettes were filled with the pipette solution (100 mM CsCl, 30 mM CsF, 10 mM NaCl, 10 mM EGTA, and 20 mM HEPES pH 7.3). Cells were clamped at −75 mV. The recordings were made using an Axopatch 200B amplifier, sampled at 5 kHz, and low pass filtered at 2 kHz using Digidata 1440 A (Molecular Devices), and analyzed with pClamp 10 software (Molecular Devices). Ligand solutions were prepared in a bath solution. A gravity-driven RSC-200 rapid solution changer (Bio-Logic) was used for solution exchange.
Statistical analysis in Fig. 3 and Fig. 4 was performed using GraphPad Prism 9.2.0 software (GraphPad Software, Inc., La Jolla, CA). Data are expressed as means ± standard deviation of at least three recordings from independent cells. The two-tailed Welch’s t-test was used. A p-value of ≤0.05 was considered statistically significant.

[8] = system: β1-containing GABAA receptors; details: cited from earlier work
β2/3N265M GABAA receptor = details: cited from earlier work
βM286W GABAA receptor = details: cited from earlier work
[9] = target: T1, α1Y210A/γ2F77A mutant α1β2γ2 GABAA receptor (Homo sapiens, UniProt P14867+P18507+P47870, DEL344-414/DEL362-381/DEL386-444/F116A/F383Q/G341Q/I446A/K384P/R340S/S415R/S417A/V416A/Y237A/Y342P); experiment: Whole-cell patch-clamp electrophysiology, benzodiazepine-site double mutant; format: cell-based; details: 500 µM and 1000 µM methaqualone with GABA EC10, vs cryo-EM construct
T1 construct: twin-strep tag (N); expressed in transfected cells; host or cells: HEK293S GnTI- (text: HEK cells)
T1 sequence (P14867 with tags, fused parts or gaps Y237A/R340S/G341Q/Y342P/DEL344-414/S415R/V416A/S417A): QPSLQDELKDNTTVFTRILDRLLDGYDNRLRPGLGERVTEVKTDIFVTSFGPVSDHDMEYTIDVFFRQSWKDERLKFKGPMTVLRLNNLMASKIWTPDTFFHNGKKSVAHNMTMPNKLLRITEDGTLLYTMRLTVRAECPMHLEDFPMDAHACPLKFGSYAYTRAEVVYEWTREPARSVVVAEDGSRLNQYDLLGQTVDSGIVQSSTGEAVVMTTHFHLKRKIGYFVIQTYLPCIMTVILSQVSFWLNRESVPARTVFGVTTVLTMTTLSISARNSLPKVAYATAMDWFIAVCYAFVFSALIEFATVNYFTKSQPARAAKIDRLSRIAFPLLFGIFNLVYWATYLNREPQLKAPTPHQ
T1 sequence (P47870 with tags, fused parts or gaps): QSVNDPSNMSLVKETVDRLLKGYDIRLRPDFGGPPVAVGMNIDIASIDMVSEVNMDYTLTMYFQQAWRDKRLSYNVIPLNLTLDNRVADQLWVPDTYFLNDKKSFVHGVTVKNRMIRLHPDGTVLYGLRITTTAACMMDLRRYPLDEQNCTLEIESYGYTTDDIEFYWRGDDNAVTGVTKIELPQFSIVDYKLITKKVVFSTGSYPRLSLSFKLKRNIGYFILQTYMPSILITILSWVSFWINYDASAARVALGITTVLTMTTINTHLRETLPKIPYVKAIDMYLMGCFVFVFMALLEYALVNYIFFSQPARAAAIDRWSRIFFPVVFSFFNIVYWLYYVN
T1 sequence (P18507 with tags, fused parts or gaps F116A/DEL362-381/F383Q/K384P/DEL386-444/I446A): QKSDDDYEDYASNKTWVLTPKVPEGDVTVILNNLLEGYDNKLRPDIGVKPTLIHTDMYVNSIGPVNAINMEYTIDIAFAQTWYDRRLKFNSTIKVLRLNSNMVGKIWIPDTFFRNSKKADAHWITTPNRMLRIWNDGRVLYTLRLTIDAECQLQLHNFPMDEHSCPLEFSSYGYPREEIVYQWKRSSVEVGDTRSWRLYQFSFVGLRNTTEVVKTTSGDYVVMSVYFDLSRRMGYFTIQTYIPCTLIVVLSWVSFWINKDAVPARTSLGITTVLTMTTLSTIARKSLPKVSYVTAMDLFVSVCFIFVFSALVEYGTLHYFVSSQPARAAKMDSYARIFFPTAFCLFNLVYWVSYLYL
Procedure: as §1, with “A gravity-driven RSC-200 rapid solution changer (Bio-Logic) was used for solution exchange.” left out
Statistical analysis in Fig. 3 and Fig. 4 was performed using GraphPad Prism 9.2.0 software (GraphPad Software, Inc., La Jolla, CA). Data are expressed as means ± standard deviation of at least three recordings from independent cells. […]

[10] = system: α6β1S265Nδ GABAA receptor; details: β1S265N in α6β1δ, cited from earlier work
[11] = system: α1H102R α1β2γ2 GABAA receptor; details: 300 µM methaqualone; cited from earlier work
[12] = system: α6β2N265Sδ GABAA receptor; details: β2N265S in α6β2δ, cited from earlier work
α1β2γ2 GABAA receptor [13] = system: α1β2γ2 GABAA receptor; design: method as in Zhu S et al., 2018; details: ref Zhu S et al., 2018, cited from earlier work

NCCCC(=O)O [GABA, γ-aminobutyric acid]
Effect of mutation on receptor sensitivity to GABA [1]: increases receptor sensitivity to GABA

Cc1ccc(-n2c(-c3ccccc3)nc3ccccc3c2=O)cc1 [PPTQ, 2-phenyl-3-(p-tolyl)-quinazolin-4(3H)-one]
Effect of mutation on PAM activity [2]: reduces the PAM activity of methaqualone and PAM and agonist activities of PPTQ significantly; also recorded: Elimination
Effect of mutation on direct activation (agonist activity) [2]: reduces the PAM activity of methaqualone and PAM and agonist activities of PPTQ significantly; also recorded: Elimination
Higher modulatory potency (EC50 value) than methaqualone (α1β2γ2 GABAA receptor [3]; α1β2γ2 receptor subtype): ~50 fold
Effect of mutation on PAM activity [4]: significantly decreases its PAM efficacy; also recorded: pronounced decrease in PAM activity
Effect of mutation on direct activation (agonist activity) [4]: completely abolishes PPTQ agonist activity; also recorded: Elimination of direct activation
Effect of mutation on PAM activity [5]: significantly decreases its PAM efficacy; also recorded: decreased PAM activity
Effect of mutation on direct activation (agonist activity) [5]: completely abolishes PPTQ agonist activity; also recorded: Elimination of direct activation
Effect of mutation on PAM activity [1]: PAM efficacy plummets; also recorded: decreased PAM activity
Effect of mutation on direct activation (agonist activity) [1]: dramatically more efficacious agonists; also recorded: Pronounced increase in direct activation
Effect of mutation on PAM activity [6]: negligible effects; also recorded: No significant difference
Effect of mutation on direct activation (agonist activity) [6]: negligible effects; also recorded: No significant difference

CN1C(=O)CN=C(c2ccccc2)c2cc(Cl)ccc21 [diazepam]
Relative current, GABA EC10 + DZ 1uM ([7]; N265M, relative to GABA EC10, single recordings, listed as DZ): 1.349 and 1.602 and 1.299 and 1.556

CCOC(=O)c1cncn1[C@H](C)c1ccccc1 [etomidate]
Activity at receptors with serine at the β265 position [8]: remain active
Effect of mutation on potentiation (β2/3N265M GABAA receptor): almost entirely eliminates potentiation by etomidate
Effect of mutation on PAM activity [1]: PAM efficacy plummets
Effect of mutation on direct activation (agonist activity) [1]: dramatically more efficacious agonists
Effect of mutation on PAM and agonist activities (βM286W GABAA receptor): detrimental to the PAM and agonist activities
Effect of mutation on PAM activity [6]: increases etomidate modulatory efficacy

Cc1ccccc1-n1c(C)nc2ccccc2c1=O [methaqualone, Methaqualone]
Effect of mutation on PAM activity [2]: reduces the PAM activity of methaqualone and PAM and agonist activities of PPTQ significantly
Effect of mutation on PAM activity ([2]; listed as Methaqualone): Almost eliminated PAM activity
Potentiation in the presence of saturating concentrations of flumazenil (α1β2γ2 GABAA receptor [3]; 300 µM methaqualone): not significantly affected
Shape of PAM concentration-response curve (α1β2γ2 GABAA receptor [3]; decreasing degree of potentiation above 300 µM): bell-shaped concentration-response curve
Agonist activity (α1β2γ2 GABAA receptor [3]; very high concentrations (200–1000 µM)): minute but significant agonist activity
Methaqualone-mediated modulation: effect of the two mutations [9]: affected neither
Effect of mutation on PAM activity [4]: more subtle decrease
Effect of mutation on PAM activity ([4]; listed as Methaqualone): Decreased PAM activity
Effect of mutation on PAM activity [1]: PAM efficacy plummets
Effect of mutation on direct activation (agonist activity) [1]: dramatically more efficacious agonists
Effect of mutation on direct activation (agonist activity) ([1]; listed as Methaqualone): Pronounced increase in direct activation
Effect of β2N265M mutation on methaqualone potentiation ([7]; 100 µM methaqualone with GABA EC10): most of the methaqualone activity was lost
Effect on receptor activation by GABA ([7]; 100 µM methaqualone, β2N265M): no measurable effect
Effect on potentiation by diazepam (competition assay) ([7]; β2N265M): block much of the PAM activity of diazepam
Effect on potentiation by diazepam (competition assay) ([7]; β2N265M, listed as MQ): inhibit diazepam potentiation
Effect of mutation on PAM activity [10]: from a NAM to a PAM
Effect of mutation on PAM activity ([10]; listed as Methaqualone): Rescued PAM activity
Effect of α1H102R mutation on potentiation [11]: not significantly affected
Effect of mutation on PAM activity [12]: from a PAM into a NAM
Effect of mutation on PAM activity ([12]; listed as Methaqualone): Elimination of PAM activity

CC(C)c1cccc(C(C)C)c1O [propofol]
Activity at receptors with serine at the β265 position [8]: remain active
Effect of mutation on potentiation (β2/3N265M GABAA receptor): significantly reduces potentiation of propofol
Effect of mutation on PAM and agonist activities (βM286W GABAA receptor): detrimental to the PAM and agonist activities

Fab: Fab fragment of 1F4 monoclonal antibody against the α1 subunit, used for cryo-EM particle alignment
Effect on flumazenil's activity or binding affinity (α1β2γ2 GABAA receptor [13]): no significant effect
Shift of the EC50 for GABA to the left (α1β2γ2 GABAA receptor [13]; weak positive allosteric modulator): 2.5 fold
